Experimental data: US20180154170A1, “METHODS AND COMPOSITIONS FOR TREATING MENTAL DISORDERS AND CONDITIONS” (priority 2015, published 2018)

Legend:
[1] = tested on: magnocellular and parvocellular BLA neurons; settings: bath application 10 μM; cells clamped at 0 mV; 10 Hz train; n=6 magnocellular, n=6 parvocellular
Description: Male mice (mean-PND 45 days) were anesthetized by isoflurane and their brains were dissected. By using a vibratome (VT1000S, Leica) 300 μm-thick parasagittal slices containing the basolateral amygdala were prepared in oxygenated cutting solution at ˜4° C. Slices were then incubated at −23° C. in oxygenated artificial cerebrospinal fluid (ACSF). The cutting solution contained 3 mM KCl, 0.5 mM CaCl2, 10 mM MgCl2, 25 mMNaHCO3, 1.2 mM NaHPO4, 10 mM d-glucose, 230 mM sucrose, saturated with 95% O/5% CO2 (pH 7.3, osmolarity 340 mOsm). […]
Whole-cell recordings in current-clamp or voltage-clamp mode were performed by using an infrared differential interference contrast microscope (BX51, Olympus) with a water immersion 40× objective (N.A. 0.8), and equipped with four automatic manipulators (Luigs & Neumann) and a CCD camera (Orca R2, Hamamatsu). […] Access resistance was monitored throughout the duration of the experiment and data acquisition was suspended whenever the resting membrane potential was depolarized above −50 mV or the access resistance was beyond 20 MΩ. […]
Optogenetic stimulation was achieved through a 460-nm LED light source (XLED1, Lumen Dynamics) driven by TTL input with a delay onset of 25 μs (subtracted off-line). […] In voltage-clamp cells were held at 0 mV for IPSC measurements, whereas, in current mode, EPSP and action potentials were measured at resting potentials. […]

[2] = tested on: AMPA and NMDA receptors in the NAcc; test: Tail suspension test with optical reactivation of dentate gyrus positive memory cells, glutamate antagonists infused into the NAcc; format: in vivo; settings: stressed mice; bilateral infusion into NAcc (NBQX 22.3 mM, AP5 38.04 mM, 0.2 μl per hemisphere), 20 min before behavior; compared with saline
Description: Glutamate antagonists were bilaterally infused into the NAcc as follows: 0.2 μl per hemisphere of NBQX at a concentration of 22.3 mM to antagonize AMPA (α-amino-3-hydroxy-5-methyl-4-isoxazole propionic acid) receptors and 0.2 μl per hemisphere of AP5 at a concentration of 38.04 mM to antagonize NMDA (N-methyl-D-aspartate) receptors. Dopamine receptor antagonists were bilaterally infused into the NAcc as follows: 0.2 μl SCH23390 at a concentration of 6.16 mM to antagonize D1-like receptors and 0.2 μl raclopride at a concentration of 2.89 mM to antagonize D2-like receptors. A 26-gauge stainless steel double internal cannula (PlasticsOne) was used to bilaterally infuse each drug; the internal cannula was connected with a microsyringe pump by a PE20 tube to control the injection rate at 100 nl min^−1. The injection cannula was left connected for 5 min before removal to allow for diffusion. Finally, all behavior was performed 20 min following drug infusion.
Fibre optic implants on experimental mice were plugged into a patch cord before the tail suspension test. Each subject was hung by its tail from a bar 40 cm from the ground with a single piece of autoclave tape. […] An experimenter blind to each mouse condition and light treatment scored all the tail suspension videos by measuring the total time in seconds that each mouse spent struggling throughout the protocol.

[3] = reported in reference 28; cited from earlier work

Row | Compound | behavioral effects of optically reactivating dentate gyrus cells labelled by a positive experience in the TST [2] | other results
1 | COc1ccc(-c2ccc(=N)n(CCCC(=O)O)n2)cc1 [gabazine] | – | inhibitory postsynaptic currents (IPSCs) evoked by optogenetic stimulation of Ppp1r1b-ChR2+ and Rspo2-ChR2+ fibers [1]: blocked
2 | NC(CCCP(=O)(O)O)C(=O)O (stereo not shown) [AP5] | blocked | –
3 | CNC1(c2ccccc2Cl)CCCCC1=O (stereo not shown) [ketamine] | – | antidepressant effect in patients [3]: rapid effects in a subset of patients
4 | NS(=O)(=O)c1cccc2c1c([N+](=O)[O-])cc1nc(O)c(O)nc12 [NBQX] | blocked | –
